System: patients after acute myocardial infarction
Experiment: Life quality, Seattle Angina Questionnaire (SAQ), same clinical trial
Type: in vivo, human
Source text: 3508 patients who were in accordance with the diagnostic standards of AMI for 28 days to 2 years and differentiated as Qi deficiency and blood stagnation syndrome by TCM were studied. 0.5 g Chinese medicine composition prepared by the method of EXAMPLE 1 (Coded as QSYQ) was administrated half an hour after meal, 3 times per day.
There were 19 questions in the Seattle angina questionnaire (SAQ), including 5 parts: physical limitation (PL), anginal stability (AS), anginal frequency (AF), treatment satisfaction (TS) and disease perception (DP). After being given necessary explanation by doctors, the questions were answered independently by patients.
They included the overall survival time, angina pectoris score, TCM symptom score and life quality score, where angina pectoris score, TCM symptom score and life quality score were evaluated at randomization, in 1st, 3rd, 6th, 9th, 12th month after treatment and 18th month after follow-up.
All evaluation results of SAQ were described during the period of observation, and Wilcoxon rank sum test was used for inter-group comparison.
The evaluation results in the SAQ were depicted in different observations, and inter-group comparison was tested by Wilcoxon Rank-sum test.

## CC(=O)Oc1ccccc1C(=O)O [Control group, aspirine]
6 months after treatment, FAS
  SAQ Question 1-3: Not limited, number of patients: 1358
  SAQ Question 1-3: Not limited, percent of patients: (77.87%)
  SAQ Question 1-3: Other reasons, number of patients: 11
  SAQ Question 1-3: Other reasons, percent of patients: (0.63%)
  SAQ Question 1-3: Severely limited, number of patients: 4
  SAQ Question 1-3: Severely limited, percent of patients: (0.23%)
  SAQ Question 1-3: Slightly limited, number of patients: 265
  SAQ Question 1-3: Slightly limited, percent of patients: (15.19%)
  SAQ Question 1-4: Mildly limited, number of patients: 314
  SAQ Question 1-4: Mildly limited, percent of patients: (18.00%)
  SAQ Question 1-4: Moderately limited, number of patients: 97
  SAQ Question 1-4: Moderately limited, percent of patients: (5.56%)
  SAQ Question 1-4: Not limited, number of patients: 731
  SAQ Question 1-4: Not limited, percent of patients: (41.92%)
  SAQ Question 1-4: Other reasons, number of patients: 13
  SAQ Question 1-4: Other reasons, percent of patients: (0.75%)
  SAQ Question 1-4: Severely limited, number of patients: 29
  SAQ Question 1-4: Severely limited, percent of patients: (1.66%)
  SAQ Question 1-4: Slightly limited, number of patients: 560
  SAQ Question 1-4: Slightly limited, percent of patients: (32.11%)
  SAQ Question 1-5: Mildly limited, number of patients: 292
  SAQ Question 1-5: Mildly limited, percent of patients: (16.75%)
  SAQ Question 1-5: Moderately limited, number of patients: 137
  SAQ Question 1-5: Moderately limited, percent of patients: (7.86%)
  SAQ Question 1-5: Not limited, number of patients: 755
  SAQ Question 1-5: Not limited, percent of patients: (43.32%)
  SAQ Question 1-5: Other reasons, number of patients: 13
  SAQ Question 1-5: Other reasons, percent of patients: (0.75%)
  SAQ Question 1-5: Severely limited, number of patients: 20
  SAQ Question 1-5: Severely limited, percent of patients: (1.15%)
  SAQ Question 1-5: Slightly limited, number of patients: 526
  SAQ Question 1-5: Slightly limited, percent of patients: (30.18%)
  SAQ Question 1-9: Mildly limited, % of cases: (19.93%)
  SAQ Question 1-9: Mildly limited, cases: 341
  SAQ Question 1-9: Moderately limited, % of cases: (20.86%)
  SAQ Question 1-9: Moderately limited, cases: 357
  SAQ Question 1-9: Not limited, % of cases: (3.39%)
  SAQ Question 1-9: Not limited, cases: 58
  SAQ Question 1-9: Other limited, % of cases: (6.20%)
  SAQ Question 1-9: Other limited, cases: 106
  SAQ Question 1-9: Severely limited, % of cases: (35.42%)
  SAQ Question 1-9: Severely limited, cases: 606
  SAQ Question 1-9: Slightly limited, % of cases: (14.20%)
  SAQ Question 1-9: Slightly limited, cases: 243
6 months after treatment, PP
  SAQ 2nd question: Clearly increased, % of cases: (0.21%)
  SAQ 2nd question: Clearly increased, cases: 3
  SAQ 2nd question: Clearly reduced, % of cases: (24.52%)
  SAQ 2nd question: Clearly reduced, cases: 355
  SAQ 2nd question: Same, % of cases: (36.46%)
  SAQ 2nd question: Same, cases: 528
  SAQ 2nd question: Slightly increased, % of cases: (2.76%)
  SAQ 2nd question: Slightly increased, cases: 40
  SAQ 2nd question: Slightly reduced, % of cases: (36.05%)
  SAQ 2nd question: Slightly reduced, cases: 522
  SAQ 3rd question: 1-2 times per week, % of cases: (36.05%)
  SAQ 3rd question: 1-2 times per week, cases: 522
  SAQ 3rd question: 1-3 times per day, % of cases: (2.76%)
  SAQ 3rd question: 1-3 times per day, cases: 40
  SAQ 3rd question: <1 time per week, % of cases: (24.52%)
  SAQ 3rd question: <1 time per week, cases: 355
  SAQ 3rd question: No onset, % of cases: (0.00%)
  SAQ 3rd question: No onset, cases: 0
  SAQ 3rd question: ≧3 times per week, % of cases: (36.46%)
  SAQ 3rd question: ≧3 times per week, cases: 528
  SAQ 3rd question: ≧4 times per day, % of cases: (0.21%)
  SAQ 3rd question: ≧4 times per day, cases: 3
  SAQ Question 1-3: Mildly limited, number of patients: 65
  SAQ Question 1-3: Mildly limited, percent of patients: (4.48%)
  SAQ Question 1-3: Moderately limited, number of patients: 14
  SAQ Question 1-3: Moderately limited, percent of patients: (0.97%)
  SAQ Question 1-3: Not limited, number of patients: 1131
  SAQ Question 1-3: Not limited, percent of patients: (78.00%)
  SAQ Question 1-3: Other reasons, number of patients: 9
  SAQ Question 1-3: Other reasons, percent of patients: (0.62%)
  SAQ Question 1-3: Severely limited, number of patients: 4
  SAQ Question 1-3: Severely limited, percent of patients: (0.28%)
  SAQ Question 1-3: Slightly limited, number of patients: 227
  SAQ Question 1-3: Slightly limited, percent of patients: (15.66%)
  SAQ Question 1-4: Mildly limited, number of patients: 266
  SAQ Question 1-4: Mildly limited, percent of patients: (18.37%)
  SAQ Question 1-4: Moderately limited, number of patients: 74
  SAQ Question 1-4: Moderately limited, percent of patients: (5.11%)
  SAQ Question 1-4: Not limited, number of patients: 613
  SAQ Question 1-4: Not limited, percent of patients: (42.33%)
  SAQ Question 1-4: Other reasons, number of patients: 12
  SAQ Question 1-4: Other reasons, percent of patients: (0.83%)
  SAQ Question 1-4: Severely limited, number of patients: 20
  SAQ Question 1-4: Severely limited, percent of patients: (1.38%)
  SAQ Question 1-4: Slightly limited, number of patients: 463
  SAQ Question 1-4: Slightly limited, percent of patients: (31.98%)
  SAQ Question 1-5: Mildly limited, number of patients: 244
  SAQ Question 1-5: Mildly limited, percent of patients: (16.86%)
  SAQ Question 1-5: Moderately limited, number of patients: 109
  SAQ Question 1-5: Moderately limited, percent of patients: (7.53%)
  SAQ Question 1-5: Not limited, number of patients: 637
  SAQ Question 1-5: Not limited, percent of patients: (44.02%)
  SAQ Question 1-5: Other reasons, number of patients: 12
  SAQ Question 1-5: Other reasons, percent of patients: (0.83%)
  SAQ Question 1-5: Severely limited, number of patients: 12
  SAQ Question 1-5: Severely limited, percent of patients: (0.83%)
  SAQ Question 1-5: Slightly limited, number of patients: 433
  SAQ Question 1-5: Slightly limited, percent of patients: (29.92%)
  SAQ Question 1-9: Mildly limited, % of cases: (20.47%)
  SAQ Question 1-9: Mildly limited, cases: 289
  SAQ Question 1-9: Moderately limited, % of cases: (21.60%)
  SAQ Question 1-9: Moderately limited, cases: 305
  SAQ Question 1-9: Not limited, % of cases: (3.54%)
  SAQ Question 1-9: Not limited, cases: 50
  SAQ Question 1-9: Other limited, % of cases: (6.37%)
  SAQ Question 1-9: Other limited, cases: 90
  SAQ Question 1-9: Severely limited, % of cases: (34.70%)
  SAQ Question 1-9: Severely limited, cases: 490
  SAQ Question 1-9: Slightly limited, % of cases: (13.31%)
  SAQ Question 1-9: Slightly limited, cases: 188
9 months after treatment, FAS
  SAQ 2nd question: 6, % of cases: (0.00%)
  SAQ 2nd question: 6, cases: 0
  SAQ 2nd question: Clearly increased, % of cases: (1.44%)
  SAQ 2nd question: Clearly increased, cases: 25
  SAQ 2nd question: Clearly reduced, % of cases: (24.17%)
  SAQ 2nd question: Clearly reduced, cases: 421
  SAQ 2nd question: Same, % of cases: (35.94%)
  SAQ 2nd question: Same, cases: 626
  SAQ 2nd question: Slightly increased, % of cases: (3.96%)
  SAQ 2nd question: Slightly increased, cases: 69
  SAQ 2nd question: Slightly reduced, % of cases: (34.50%)
  SAQ 2nd question: Slightly reduced, cases: 601
  SAQ 3rd question: 1-2 times per week, % of cases: (34.50%)
  SAQ 3rd question: 1-2 times per week, cases: 601
  SAQ 3rd question: 1-3 times per day, % of cases: (3.96%)
  SAQ 3rd question: 1-3 times per day, cases: 69
  SAQ 3rd question: <1 time per week, % of cases: (24.17%)
  SAQ 3rd question: <1 time per week, cases: 421
  SAQ 3rd question: No onset, % of cases: (0.00%)
  SAQ 3rd question: No onset, cases: 0
  SAQ 3rd question: ≧3 times per week, % of cases: (35.94%)
  SAQ 3rd question: ≧3 times per week, cases: 626
  SAQ 3rd question: ≧4 times per day, % of cases: (1.44%)
  SAQ 3rd question: ≧4 times per day, cases: 25
  SAQ Question 1-3: Mildly limited, number of patients: 58
  SAQ Question 1-3: Mildly limited, percent of patients: (3.33%)
  SAQ Question 1-3: Moderately limited, number of patients: 17
  SAQ Question 1-3: Moderately limited, percent of patients: (0.97%)
  SAQ Question 1-3: Not limited, number of patients: 1421
  SAQ Question 1-3: Not limited, percent of patients: (81.48%)
  SAQ Question 1-3: Other reasons, number of patients: 8
  SAQ Question 1-3: Other reasons, percent of patients: (0.46%)
  SAQ Question 1-3: Severely limited, number of patients: 2
  SAQ Question 1-3: Severely limited, percent of patients: (0.11%)
  SAQ Question 1-3: Slightly limited, number of patients: 238
  SAQ Question 1-3: Slightly limited, percent of patients: (13.65%)
  SAQ Question 1-4: Mildly limited, number of patients: 264
  SAQ Question 1-4: Mildly limited, percent of patients: (15.14%)
  SAQ Question 1-4: Moderately limited, number of patients: 85
  SAQ Question 1-4: Moderately limited, percent of patients: (4.87%)
